Values quoted from earlier work as cited in patent publication EP0769503A2, “A heparin complex and medical device having such substance” (priority 1995, dated 1997).

Tested on: rat
Conditions: oral administration to rat

| Compound | LD50 [mg/kg] |
| --- | --- |
| CCCCCCCCCCCCCCCCCC[N+](C)(C)CCCCCCCCCCCCCCCCCC.[Cl-] [Distearyldimethylammonium chloride] | 11300 |
| CCCCCCCCCCCC[N+](C)(C)Cc1ccccc1.[Cl-] [Laurylbenzyldimethylammonium chloride] | >500 |
| CCCCCCCCCCCCCCCCCC[N+](C)(C)Cc1ccccc1.[Cl-] [Stearylbenzyldimethylammonium chloride] | 1250 |
| CCCCCCCCCCCCCCCC[N+](C)(C)C.[Cl-] [Trimethylhexadecylammonium chloride] | 250 to 300 |
| CCCCCCCCCCCCCCCCCC[N+](C)(C)C.[Cl-] [Trimethyloctadecylammonium chloride] | 1000 |
| Benzalkonium dimethylammonium (C8-C18) chloride | 445 |
